Patent US20220395542A1, “Nutritional Compositions for Treating a Clostridium Difficile Infection” (ABBOTT LABORATORIES, priority 2019, published 2022)

Test system: C. difficile
Test: in vitro gut digestion and fermentation model (SHIME PathoGut) assessing CDI and CDI recurrence
Assay type: cell-based, Clostridium difficile
Settings: control experiments (FIGS. 1 and 2); vancomycin 125 mg/L three times per day for seven days after the 4 weeks of CDI

SMILES: CN[C@H](CC(C)C)C(=O)N[C@H]1C(=O)N[C@@H](CC(N)=O)C(=O)N[C@H]2C(=O)N[C@H]3C(=O)N[C@H](C(=O)N[C@H](C(=O)O)c4cc(O)cc(O)c4-c4cc3ccc4O)[C@H](O)c3ccc(c(Cl)c3)Oc3cc2cc(c3O[C@@H]2O[C@H](CO)[C@@H](O)[C@H](O)[C@H]2O[C@H]2C[C@](C)(N)[C@H](O)[C@H](C)O2)Oc2ccc(cc2Cl)[C@H]1O [vancomycin]
- CD cell count: below detectable levels
